Assay results published in publication PMC4618636 (Pharmacology Research & Perspectives, 2015).
Several values for one entry are separate records, joined by “and”; a condition that tells them apart may be missing. Equal entries are not always repeated. Where two headings read alike, the source gives them in different places.

Experiments:
CYP3A4 [1] = settings: in vivo induction value used for the RIS calibration; cited from earlier work
CYP2B6 = settings: for CYP2B6 Indmax: mean from two experiments; for CYP2B6 % PB: relative to positive control phenobarbital, equation 2; for CYP2B6 induction: negative controls, any concentration tested (quinidine 0.1–250 μmol/L, flumazenil 0.05–50 μmol/L), data not shown
CYP3A4 [2] = settings: for CYP3A4 RIS: mean of two experiments; for CYP3A4 % Rif: relative to positive control rifampicin, equation 2; for CYP3A4 Ind50: column headed Ind50 in Table 5; for CYP3A4 induction: negative controls, any concentration tested (quinidine 0.1–250 μmol/L, flumazenil 0.05–50 μmol/L), data not shown
[3] = upcyte Donor 10-03, mean from two experiments
[4] = upcyte Donor 10-03, values of two experiments
[5] = upcyte Donor 151-03, mean from two experiments
[6] = upcyte Donor 151-03, values of two experiments
[7] = upcyte Donor 422A-03, mean from two experiments
[8] = upcyte Donor 422A-03, values of two experiments
[9] = upcyte Donor 653-03, mean from two experiments
[10] = upcyte Donor 653-03, values of two experiments

Row | Structure (SMILES) | % Decrease in midazolam AUC (CYP3A4 [1]) | CYP2B6 Indmax (CYP2B6; upcyte Donor 10-03) | CYP2B6 % PB (CYP2B6; upcyte Donor 10-03) | CYP2B6 Indmax (CYP2B6; upcyte Donor 151-03) | CYP2B6 % PB (CYP2B6; upcyte Donor 151-03) | CYP2B6 Indmax (CYP2B6; upcyte Donor 422A-03) | CYP2B6 % PB (CYP2B6; upcyte Donor 422A-03) | CYP2B6 Indmax (CYP2B6; upcyte Donor 653-03) | CYP2B6 % PB (CYP2B6; upcyte Donor 653-03) | CYP3A4 Indmax (CYP3A4 [2]; [3]) | CYP3A4 RIS (CYP3A4 [2]; upcyte Donor 10-03) | CYP3A4 % Rif (CYP3A4 [2]; upcyte Donor 10-03) | CYP3A4 Indmax (CYP3A4 [2]; [5]) | CYP3A4 RIS (CYP3A4 [2]; upcyte Donor 151-03) | CYP3A4 % Rif (CYP3A4 [2]; upcyte Donor 151-03) | CYP3A4 Indmax (CYP3A4 [2]; [6]) | CYP3A4 Indmax (CYP3A4 [2]; [7]) | CYP3A4 RIS (CYP3A4 [2]; upcyte Donor 422A-03) | CYP3A4 % Rif (CYP3A4 [2]; upcyte Donor 422A-03) | CYP3A4 Indmax (CYP3A4 [2]; [8]) | further results
1 | NC(=O)N1c2ccccc2C=Cc2ccccc21 [Carbamazepine, carbamazepine] | 95% | 2.0 fold | 33% | 2.3 fold | 68% | 4.3 fold | 52% | 1.4 fold | 17% | 4.8 fold | 2.675 | 13% | 3.8 fold | 3.071 | 45% | 4.2 fold and 3.4 fold | 4.0 fold | 1.940 | 28% | 4.0 fold and 4.1 fold | CYP3A4 Indmax (CYP3A4 [2]; [4]): 5.5 fold and 4.1 fold; CYP3A4 Ind50 (CYP3A4 [2]; upcyte Donor 653-03): 52; CYP3A4 Indmax (CYP3A4 [2]; [9]): 5.7 fold; CYP3A4 RIS (CYP3A4 [2]; upcyte Donor 653-03): 4.138; CYP3A4 Indmax (CYP3A4 [2]; [10]): 6.2 fold and 5.2 fold
2 | C[C@@H]1C[C@H]2[C@@H]3CCC4=CC(=O)C=C[C@]4(C)[C@@]3(F)[C@@H](O)C[C@]2(C)[C@@]1(O)C(=O)CO [Dexamethasone, dexamethasone] | – | No induction | No induction | No induction | No induction | No induction | No induction | No induction | No induction | – | – | – | – | – | – | – | – | – | – | – | –
3 | CCOC(=O)c1ncn2c1CN(C)C(=O)c1cc(F)ccc1-2 [Flumazenil, flumazenil] | 0% | No induction | No induction | No induction | No induction | No induction | No induction | No induction | No induction | No induction | No induction | No induction | No induction | No induction | No induction | No induction | No induction | No induction | No induction | No induction | CYP2B6 induction (CYP2B6): did not induce; CYP3A4 induction (CYP3A4 [2]): did not induce; CYP3A4 Indmax (CYP3A4 [2]; [4]): No induction; CYP3A4 Ind50 (CYP3A4 [2]; upcyte Donor 653-03): No induction; CYP3A4 Indmax (CYP3A4 [2]; [9]): No induction; CYP3A4 RIS (CYP3A4 [2]; upcyte Donor 653-03): No induction; CYP3A4 Indmax (CYP3A4 [2]; [10]): No induction
4 | CCC1(c2ccccc2)C(=O)NC(=O)NC1=O [Phenobarbital, phenobarbital] | 70% | 3.9 fold | 100% | 2.9 fold | 100% | 7.3 fold | 100% | 3.1 fold | 100% | 23.3 fold | 0.685 | 74% | 5.2 fold | 2.211 | 68% | 5.5 fold and 5.0 fold | 11.3 fold | 1.727 | 95% | 10.7 fold and 11.8 fold | CYP3A4 Indmax (CYP3A4 [2]; [4]): 23.8 fold and 22.9 fold; CYP3A4 Ind50 (CYP3A4 [2]; upcyte Donor 653-03): 120; CYP3A4 Indmax (CYP3A4 [2]; [9]): 11.8 fold; CYP3A4 RIS (CYP3A4 [2]; upcyte Donor 653-03): 2.198; CYP3A4 Indmax (CYP3A4 [2]; [10]): 13.0 fold and 10.5 fold
5 | O=C1NC(=O)C(c2ccccc2)(c2ccccc2)N1 [Phenytoin, phenytoin] | 94% | 3.6 fold | 88% | 2.7 fold | 89% | 4.0 fold | 48% | 2.8 fold | 85% | 14.6 fold | 1.970 | 45% | 4.7 fold | 3.908 | 60% | 5.7 fold and 3.8 fold | 15.8 fold | 0.464 | 137% | 14.8 fold and 16.9 fold | CYP3A4 induction, % of rifampicin maximal induction (CYP3A4 [2]; upcyte Donor 653-03): 120%; CYP3A4 Ind50 (CYP3A4 [2]; upcyte Donor 653-03): 59; CYP3A4 Indmax (CYP3A4 [2]; [9]): 6.3 fold; CYP3A4 RIS (CYP3A4 [2]; upcyte Donor 653-03): 4.341; CYP3A4 Indmax (CYP3A4 [2]; [10]): 7.4 fold and 5.2 fold
6 | CCc1ccc(CCOc2ccc(CC3SC(=O)NC3=O)cc2)nc1 (centres unmarked) [Pioglitazone, pioglitazone] | 26% | 2.6 fold | 55% | 1.9 fold | 49% | 3.6 fold | 42% | 2.1 fold | 54% | 4.3 fold | 0.0079 | 11% | 4.0 fold | 0.0040 | 48% | 4.0, 4.0 fold | 2.6 fold | 0.0040 | 14% | 2.3 fold and 2.8 fold | CYP3A4 Indmax (CYP3A4 [2]; [4]): 4.4 fold and 4.2 fold; CYP3A4 Ind50 (CYP3A4 [2]; upcyte Donor 653-03): 91; CYP3A4 Indmax (CYP3A4 [2]; [9]): 9.2 fold; CYP3A4 RIS (CYP3A4 [2]; upcyte Donor 653-03): 0.0066
7 | C=C[C@H]1C[N@@]2CC[C@H]1C[C@@H]2[C@@H](O)c1ccnc2ccc(OC)cc12 [Quinidine, quinidine] | 0% | No induction | No induction | No induction | No induction | No induction | No induction | No induction | No induction | No induction | No induction | No induction | No induction | No induction | No induction | No induction | No induction | No induction | No induction | No induction | CYP2B6 induction (CYP2B6): did not induce; CYP3A4 induction (CYP3A4 [2]): did not induce; CYP3A4 Indmax (CYP3A4 [2]; [4]): No induction; CYP3A4 Ind50 (CYP3A4 [2]; upcyte Donor 653-03): No induction; CYP3A4 Indmax (CYP3A4 [2]; [9]): No induction; CYP3A4 RIS (CYP3A4 [2]; upcyte Donor 653-03): No induction; CYP3A4 Indmax (CYP3A4 [2]; [10]): No induction
8 | CO[C@H]1/C=C/O[C@@]2(C)Oc3c(C)c(O)c4c(O)c(c(/C=N/N5CCN(C)CC5)c(O)c4c3C2=O)NC(=O)/C(C)=C\C=C\[C@H](C)[C@H](O)[C@@H](C)[C@@H](O)[C@@H](C)[C@H](OC(C)=O)[C@@H]1C [Rifampicin, rifampicin] | – | 2.0 fold | 34% | 1.3 fold | 14% | 7.8 fold | 108% | 1.6 fold | 29% | – | – | – | – | – | – | – | – | – | – | – | –
9 | Cc1c(C)c2c(c(C)c1O)CCC(C)(COc1ccc(CC3SC(=O)NC3=O)cc1)O2 (centres unmarked) [Troglitazone, troglitazone] | 67% | 5.4 fold | 150% | 2.1 fold | 57% | 5.0 fold | 63% | 2.3 fold | 63% | 4.7 fold | 0.083 | 12% | 1.8 fold | 0.094 | 13% | 2.3 fold and 1.3 fold | 2.7 fold | 1.030 | 15% | 2.6 fold and 2.7 fold | CYP3A4 Indmax (CYP3A4 [2]; [4]): 5.0 fold and 4.4 fold; CYP3A4 Ind50 (CYP3A4 [2]; upcyte Donor 653-03): 14; CYP3A4 Indmax (CYP3A4 [2]; [9]): 2.2 fold; CYP3A4 RIS (CYP3A4 [2]; upcyte Donor 653-03): 0.466; CYP3A4 Indmax (CYP3A4 [2]; [10]): 1.8 fold and 2.6 fold
